From the Deep4Chem optical property database come the findings set out here.

Structures are written as SMILES.

The series is described as follows: solvent given as SMILES.

As to `c1ccc(-c2nc(-c3ccccc3)nc(-c3ccc(-n4c5ccccc5c5cc6c(cc54)C4(c5ccccc5-c5ccccc54)c4ccccc4-6)cc3)n2)cc1`, the emission maximum is, setting by setting: (in C1CCOC1) 492.65 nm; (in CCCCCC) 396.27 nm; (in Cc1ccccc1) 432 nm; (in ClCCl) 501.47 nm; (in O=P(c1ccccc1)(c1ccccc1)c1ccccc1Oc1ccccc1P(=O)(c1ccccc1)c1ccccc1) 470 nm.

For `O=C(O)c1ccc(-c2ccc(-c3nc(-c4ccccc4)c4ccccn34)cc2)s1`, under “in CC#N”, the emission maximum is 485 nm.

Turning to `O=Cc1ccc(N(c2ccc(C=O)cc2)c2ccc(-c3ccc4c(c3)C(=O)c3ccccc3C4=O)cc2)cc1`, the emission maximum runs as follows: (in C1CCOC1) 662 nm; (in CCCCCC) 493 nm; (in CCOC(C)=O) 654 nm; (in CCOCC) 585 nm; (in Cc1ccccc1) 558 nm; (in ClC(Cl)(Cl)Cl) 541 nm. Further, the emission maximum (in ClCCl) was determined as 685 nm.

Compound `O=S(=O)(c1ccccc1)c1ccc(-n2c3ccccc3c3c2c2ccccc2n3-c2ccccc2)cc1` came in with an emission maximum (in Cc1ccccc1) of 476 nm.

Take `CCCCCc1c(C)c2c3ccccc3[nH]c2c2ccccc12`: the emission maximum (in ClCCl) is 369 nm.

For `C#Cn1c(-c2cc(-c3nc4ccc(C)cc4n3C#C)cc(-c3nc4ccc(C)cc4n3C#C)c2)nc2ccc(C)cc21`, the emission maximum (in C1CCOC1) is 389.5 nm.

`CC1=CC(C)=[N+]2C1=C(c1c(-c3ccccn3)nc3ccccn13)c1c(C)cc(C)n1[B-]2(F)F`: the emission maximum (in ClCCl) is reported as 536 nm.

`CCN(CC)c1ccc2cc(/C=C/C(O)=C3\CC/C(=C\c4cc5ccc(N(CC)CC)cc5oc4=O)C3=O)c(=O)oc2c1`: the emission maximum by setting is: (in C1COCCO1) 581 nm; (in CC#N) 637 nm; (in CC(C)=O) 613 nm; (in CCOC(C)=O) 589 nm; (in CN(C)C=O) 638 nm; (in CS(C)=O) 639 nm. In addition, the emission maximum is 570 nm (in Cc1ccccc1) and 605 nm (in ClC(Cl)Cl).

As for `N#Cc1cc2ccc(O)cc2oc1=N`, the emission maximum is, setting by setting: (in C1CCOC1) 412 nm; (in CC#N) 408 nm; (in CCOC(C)=O) 414 nm; (in CS(C)=O) 409 nm; (in ClC(Cl)Cl) 415 nm.

Regarding `COc1ccc(-c2csc(/C(C#N)=C/c3ccc(Cl)cc3Cl)n2)cc1`, the emission maximum (in CC#N) is given as 557 nm.

`CC(C)(C)c1ccc2c(c1)c1cc(C(C)(C)C)cc3c1n2-c1cc(-c2ccccc2F)cc2c1B3c1cc(C(C)(C)C)cc3c4cc(C(C)(C)C)ccc4n-2c13` came in with an emission maximum (in Cc1ccccc1) of 499.76 nm.

Under “in C1CCOC1”, `N#Cc1c(N2CCCCC2)cc(-c2ccc3ccc4cccc5ccc2c3c45)c2c1Cc1ccccc1-2` gave an emission maximum of 481 nm.

In the case of `CNc1ccc(/C=C/C(=O)OC)cc1`, the emission maximum (in O) is 470 nm.

For `COc1c2ccccc2c(OC)c2c1c1cc(C)ccc1n2C`, the emission maximum by setting is: (in C1CCCCC1) 421 nm; (in CC#N) 431 nm; (in CO) 426 nm; (in ClCCl) 428 nm.

In turn, `CN(C)c1ccc(C#Cc2ccccc2)cc1` had an emission maximum (in C1CCCCC1) of 344.99 nm; an emission maximum (in C1CCOC1) of 386 nm; an emission maximum (in C1COCCO1) of 372.49 nm; an emission maximum (in CC1CCCO1) of 377.5 nm; an emission maximum (in CC#N) of 415.51 nm; an emission maximum (in CC(C)=O) of 410.49 nm. The emission maximum runs as follows: (in CC(C)CC(C)(C)C) 342.99 nm; (in CC(C)O) 365 nm; (in CCCCCCCCCCCCCCCC) 346.98 nm; (in CCCCCCCCCCCCCCCCCl) 360.49 nm; (in CCOC(C)=O) 382.5 nm; (in CCOCC) 368.5 nm. Also, the emission maximum (in CN(C)C=O) is recorded as 418.5 nm, the emission maximum (in CO) is listed as 372 nm, the emission maximum (in CS(C)=O) is reported as 423.5 nm and the emission maximum (in Cc1ccccc1) amounted to 366.01 nm.

For the compound `c1ccc2cc3c(cc2c1)-c1cccc2c1c-3cc1ccccc12`, the emission maximum (in CCCCCCC) was determined as 401 nm.

As to `Cc1ccc(-c2c3ccc([nH]3)c3nc(c(-c4ccc(C#N)cc4)c4ccc([nH]4)c4ccc([nH]4)c(-c4ccc(C)cc4)c4ccc2o4)C=C3)cc1`, the emission maximum is, setting by setting: (in C1CCOC1) 730 nm; (in Cc1ccccc1) 722 nm; (in c1ccccc1) 722 nm.

`O=C1C(=Cc2ccc(Br)cc2)Oc2cccc(O)c21` came in with an emission maximum (in CC#N) of 487 nm.

In the case of `c1ccc(-c2nc(-c3ccccc3)n3ccccc23)cc1`, the emission maximum was determined as 445 nm (in C1CCCCC1); 478 nm (in CC#N); 477 nm (in CO); 454 nm (in ClC(Cl)Cl); 484 nm (in ClCCl); 479 nm (in O).

For `Oc1ccc2ccccc2c1/C=N/CC/N=C/c1c(O)ccc2ccccc12`, where the note is “in CC#N”, the emission maximum came to 466 nm.

`C[Si]1(c2ccccc2)C(c2ccc3c4ccccc4n(-c4ccccc4)c3c2)=C(c2ccccc2)C(c2ccccc2)=C1c1ccc2c3ccccc3n(-c3ccccc3)c2c1` displayed an emission maximum (in C1CCOC1) of 525 nm.

On to `CC1=[N+]2C(=C(c3ccc(N(C)C)cc3)c3ccc(C)n3[B-]2(F)F)C=C1`, for which the emission maximum reads like this: (in C1CCCCC1) 518 nm; (in C1CCOC1) 517 nm; (in CC#N) 511 nm; (in CC(=O)C(C)(C)C) 512 nm; (in CC(C)=O) 515 nm; (in CCCCCC) 519 nm. The emission maximum is, setting by setting: (in CCOC(C)=O) 513 nm; (in CO) 511 nm; (in Cc1ccccc1) 580 nm; (in ClC(Cl)Cl) 615 nm.

For the setting “in CS(C)=O”, `CSc1ccc(-c2nc3sc4ccccc4c3s2)cc1` gave an emission maximum of 431 nm.

As to `C(=C\c1ccc(-c2cccc3ccccc23)s1)/c1ccc(-c2cccc3ccccc23)s1`, the emission maximum (in ClCCl) came to 475 nm.

Compound `N#Cc1cc(-n2c3ccccc3c3ccccc32)c(-n2c3ccccc3c3ccccc32)cc1-c1cc(-n2c3ccccc3c3ccccc32)c(-n2c3ccccc3c3ccccc32)cc1C#N` came in with an emission maximum (in Cc1ccccc1) of 458 nm.

Where the note is “in ClCCl”, `CCCCCCn1c(=O)c2c3[nH]c4ccccc4[nH]c3c3c(=O)n(CCCCCC)c(=O)c3c2c1=O` yielded an emission maximum of 641 nm.

Regarding `C#Cn1c(-c2cc(-c3nc4ccccc4n3C#C)cc(-c3nc4ccccc4n3C#C)c2)nc2ccccc21`, the emission maximum (in C1CCOC1) is listed as 386.5 nm.

For `O=P1(c2ccccc2)C(c2ccc(N(c3ccccc3)c3ccccc3)cc2)=Cc2cc3ccccc3cc21` (stereo not given), the emission maximum worked out at 511 nm (in C1CCOC1); 561 nm (in CC#N); 551 nm (in CN(C)C=O); 478 nm (in Cc1ccccc1); 516 nm (in ClC(Cl)Cl); 533 nm (in ClCCl).

Compound `CC[C@H](C)COc1ccc(C2=C3C(C)=CC(C)=[N+]3[B-](F)(F)n3c(C)cc(C)c32)cc1` showed an emission maximum (in ClCCl) of 520 nm.

`c1cc2ccc3ccc4cc3c2cc1c1ccc2c(c1)c1cc(ccc1[C@]13OCCO[C@]21OCCO3)c1ccc2c(c1)c1cc4ccc1[C@]13OCCO[C@]21OCCO3` showed an emission maximum (in Cc1ccccc1) of 388 nm.
